Reference: EP4427746A1, “TREATMENT OF DEMENTIA USING BORTEZOMIB OR PARBENDAZOLE” (Bash Biotech Inc, priority 2023, dated 2024)
Read-outs that look alike come from different tables or passages of the source.

Columns and labels:
[1] = system: glioblastoma cell line U138MG; assay: Glutamate contents assay; format: cell-based; settings: U138MG cells after drug treatment, compared to cell viability, Figure 7
Source text: (§1) A microplate reader was used to measure absorbances.
Drug efficacy describes how the drug-protein interaction manipulates the normal action of the protein. Glutamate content was examined at differing drug concentrations with the glutamate assay kit to measure drug efficacies. Abcam protocol (ab83389) was followed to quantitate glutamate content. Here, the protocols were summarized.
To prepare samples, cells were harvested, washed with cold PBS, resuspended in an assay buffer, homogenised, incubated for 15 - 30 min on ice, and centrifuged for 2 - 5 minutes at 4°C at top speed using a cold microcentrifuge. The supernatant was collected and transferred to a clean tube, then distributed to well plates.
To quantitate free glutamate levels, the reaction mixture was added to each standard and sample well. The background reaction mix was added to the background sample wells. Wells were mixed and incubated at 37°C for 30 minutes protected from light. Colour change was measured at OD = 450 nm (blue). Glutamate concentration was calculated as formulated in the protocol, then divided by relative cytotoxicity by MTT assay to extrapolate drug efficacy.

glutaminase-2 = assay: Western blot for drug-induced glutaminase content; format: cell-based; settings: U138MG cells, Figure 8
Description: as §1
(§2) Drug-induced glutaminase content was measured by western. The cells were washed with PBS and lysed with CelLytic M (C2978, Sigma-Aldrich, Saint Louis, MO, USA) lysis buffer containing protease inhibitors. The lysates were centrifuged at 12,000 rotations per minute for 5 min, and the supernatant was collected. Proteins were separated by Mini-PROTEAN® TGXTM Precast Gels (BioRad, Berkeley, CA, USA) and transferred to a Trans-Blot Turbo Mini 0.2um PVDF Transfer Packs membrane (BioRad, Berkeley, CA, USA) by using Trans-Blot® TurboTM Transfer System (Bio-Rad, Berkeley, CA, USA). The antibodies for mitochondrial glutaminase-1 (kidney-type) and glutaminase-2 (liver-type) encoded from two GLS isomers and GAPDH were used for primary immunoblotting. All the antibodies were diluted at a 1:1000 concentration. DMSO was used as a blank reference. The membranes were incubated in primary antibody solution overnight at 4 °C with gentle rocking. The secondary antibody, goat Anti-Rabbit HRP (ab205718) or goat anti-mouse IgG-HRP (sc2005, Santa Cruz Biotechnology, Inc., Dallas, TX, USA), was blotted for 30 min at 4 °C with gentle rocking. The protein bands were detected with ImageQuant LAS 500 (29-0050-63)

[2] = system: glioblastoma cell line U138MG
Description: (§3) Before performing these assays, the optimum cell count per well was decided by comparing the optical density for L-glutamate (ab120049) absorbance between DMEM-0819 (with glutamine) and DMEM-5671 (without glutamine) culture media, which was tested by glutamate assay kit from Abcam (Abcam PLC, Cambridge, UK) at 450 nm following its protocol, then cultured 20000 cells per well in DMEM-0819 with L-alanyl-L glutamine, adherently, treated with drugs dissolved in DMSO separately. To prepare LDH assay high control samples, cell lysis solution was added instead of drugs. Samples were incubated in a humidified incubator (at 37 °C, 5% CO2). A microplate reader was used to measure absorbances.
(§4) Tetrazolium reduction assay (MTT assays) and lactate dehydrogenase release assays (LDH assays) were conducted to assess cell metabolic activity (cell proliferation) and to measure cytotoxicity (drug toxicity). Abcam protocols (MTT: ab211091, LDH: ab65293) were followed. Here, both protocols were summarized.
(§5) Before adding assay solutions on day 1 (24 hours) and day 2 (48 hours), the drug treatment media were aspirated from plates and transferred to well plates.
(§6) For the MTT assay, serum-free media and MTT Reagent were added to each well. Control samples were prepared without using cells but serum-free media and MTT reagent. […] The reduction of MTT by mitochondrial succinate dehydrogenase was measured by reading absorbance at OD = 590 nm (yellow to purple). Cytotoxicity (CT) was calculated as a ratio of measures of absorbance of control wells (AbsC) and absorbance of sample-containing wells (AbsS) as below: CT = 100∗((AbsC−AbsS))/(AbsC) [formula]
(§7) For the LDH release assay, LDH reaction mix was added to wells. […] The release of LDH from cells due to damaged plasma membrane was measured by reading absorbance at OD = 450 nm (blue). Cytotoxicity (CT) was calculated as a ratio of measures of absorbance of low control wells (AbsLC), high control wells (AbsHC) sample wells (AbsS) as below: CT = 100∗((AbsS−AbsLC))/((AbsHC−AbsLC)) [formula]

glutaminase-1 = assay: Western blot for drug-induced glutaminase content; format: cell-based; settings: U138MG cells, Figure 8
Description: as §1, §2

[3] = system: glioblastoma cell line U138MG; assay: Drug toxicity: MTT assay and LDH release assay; settings: U138MG glial cells, MTT and LDH release assays, 24 and 48 hours, Figure 6
Description: as §3, §4, §5, §6, §7

Row | Structure (SMILES) | glutamate levels [1] | drug affinity for glutaminase-2 (relative band intensities) (glutaminase-2) | drug toxicity (metabolic activity and cytotoxicity) [2] | drug affinity for glutaminase-1 (relative band intensities) (glutaminase-1) | drug toxicity (metabolic activity and cytotoxicity) [3]
1 | CC(C)C[C@H](NC(=O)[C@H](Cc1ccccc1)NC(=O)c1cnccn1)B(O)O [bortezomib] | highly decreased | drastic | toxic for glial cells even at low concentrations |  | 
2 | CCCCc1ccc2[nH]c(NC(=O)OC)nc2c1 [parbendazole] | highly decreased | drastic |  | significant drug affinity for glutaminase-1 could be measured for only comparably higher concentrations | toxic for glial cells even at low concentrations
3 | CC12CC3CC(C)(C1)CC(N)(C3)C2 [memantine] | highly decreased | significant and higher affinity | insignificant | significant drug affinity for glutaminase-1 could be measured for only comparably higher concentrations | 
